# “Also recorded” adds a separate entry of the source.
# Key:
# [1] = test system: CYPs 1A2, 2B6, 2C9, 2C19, 2D6, 3A4; assay: CYP inhibition in human liver microsomes; assay type: in vitro ADME; settings: 1 and 10 μM, significant = >30% reduction in activity
# Source text: CYP Inhibition: SRI-011381 was screened for CYP inhibition, an indicator of potential drug interactions. […] Thus, this compound is unlikely to cause clinically relevant interactions due to effects on co-administered drugs metabolized by these hepatic enzymes.
# Drug Interactions (GYP inhibition): GYPs are major enzymes involved in drug metabolism and this assay is used to screen the inhibitory potential of test compounds on in vitro CYP activity, and help predict potential drug interactions due to inhibition of metabolism of one drug by another. This assay was performed by incubating test compounds with human liver microsomes and model CYP substrates (i.e., phenacetin (CYP1A2), bupropion (CYP2B6), diclofenac (CYP2C9), mephenytoin (CYP2C19), bufuralol (CYP2D6), testosterone (CYP3A4), and midazolam (CYP3A4)). Control incubations containing compounds known to inhibit specific CYPs were also included and incubated in the same manner as the test compounds (i.e., furafylline (CYP1A2), thioTEPA (CYP2B6), sulfaphenazole (CYP2C9), tranylcypromine (CYP2C19), quinidine (CYP2D6), and ketoconazole (CYP3A4)). The data is expressed as ‘% of control’, where the controls consist of the model substrates incubated with microsomes (no test compounds or inhibitors).
# [2] = test system: APP751LonSwe transgenic mice; assay: Repeat dose range finding toxicity study in APP751LonSwe transgenic mice; assay type: in vivo; settings: oral 10, 30, 60, or 100 mg/kg 3 times a week for 2 weeks
# Method: (§1) Determination of the maximum tolerated dose of SRI-011381 in APP transgenic mice on a C57Bl/6 genetic background: A repeat dose range finding toxicity study was also performed in APP751^LonSwe transgenic mice to select doses for evaluation in the efficacy study. Compound SRI-011381 was dissolved in a vehicle containing 15% solutol and 85% water. The formulated compound was administered orally to APP751^LonSwe transgenic mice at 0 (vehicle only), 10, 30, 60, or 100 mg/kg of body weight 3 times a week for 2 weeks (this is the regimen intended to be used for the preclinical treatment study in these mice). Five mice (3 male and 2 female) were used for each dosage group. The starting ages of the mice ranged from 4.4 to 6.1 months. Serum and whole blood samples were collected at the end of the study and subjected to clinical chemistry and hematology analysis.
# [3] = as above; assay type: in vivo; settings: both sexes, APP751LonSwe transgenic, C57Bl/6 background, mouse, in vivo; oral, 3 times per week for 2 weeks; read-out: maximum tolerated dose (MTD)
# Method: as §1
# Sprague Dawley rats = assay: 7-Day oral gavage dose range finding and toxicokinetic study in rats; assay type: in vivo
# Method: 7-Day oral gavage dose range finding and toxicokinetic study of SRI-011381 in male and female Sprague Dawley rats: The objective of this study was to determine maximum tolerated dose (MTD), characterize the potential toxicity, and estimate the dose dependence of exposure to SRI-011381 in adult male and female Sprague Dawley rats following daily oral gavage (po) dose administration for 7 consecutive days. The doses studied were 2, 10, and 50 mg/kg, formulated in 15% Solutol/85% sterile water and administered in the volume of 10 ml/kg.
# Species and Strain: Sprague Dawley rat; Route of Administration: Oral (po); Frequency: Daily administration for 7 consecutive days; Dosing Volume: 10 ml/kg; Dose volumes will be calculated based on the animal's most recent body weight; Duration of In-life Phase: 8 days; Endpoints: clinical observations, mortality, body weights, clinical chemistry, hematology, gross pathology, organ weights, histopathology, toxicokinetics.
# [4] = test system: mouse J774A.1 macrophages; assay: Fibrillar Aβ clearance by J774A.1 macrophages; assay type: cell-based; settings: 24 h, 2, 5, or 10 μM
# Method: SRI-011381 promotes Aβ clearance in cell culture: TGF-β1 promotes Aβ clearance in a microglia cell line. To test whether SRI-011381 has similar properties, mouse J774A.1 macrophages and human macrophages differentiated from THP-1 monocytic cell lines were treated with fibrillar Aβ in the absence or presence of compound (2, 5, or 10 μM) for 24 h. Conditioned medium was harvested and the remaining Aβ that was not phagocytosed by macrophages was quantified by Aβ ELISA.
# FIGS. 4A and 4B present data from experiments in which human macrophages differentiated from THP-1 monocytic cell lines and mouse J774A.1 macrophages were incubated with fibrillar Aβ in the absence or presence of compound (2 or 5 μM) for 24 h. Conditioned medium was harvested and the remaining Aβ was quantified by Aβ ELISA. The collected medium (FIGS. 4C-4D) was added to N2A-APP-Swe cells (mouse Neuro-2A neuroblastoma cells stably expressing Swedish APP695) and incubated for 24 h. Neurotoxicity was quantified by an MTS Assay.
# Mouse J774A.1 macrophages and human macrophages that were differentiated from THP-1 monocytic cell lines were treated with fibrillar Aβ42 in the absence or presence of SRI-011382 or its derivative compounds (2, 5, or 10 μM) for 24 h. Conditioned medium was harvested and the remaining Aβ42 that was not phagocytosed by macrophages was quantified by Aβ42 ELISA kit (Invitrogen). […]
# [5] = Cytotoxicity in primary rat hepatocytes; assay type: cell-based; settings: rat
# Method: In Vitro Cytotoxicity: The cytotoxicity of SRI-011381 was determined in primary rat hepatocytes and in VERO cells.
# Rat hepatocytes were isolated by collagenase perfusion and allowed to form a monolayer overnight. The test compounds were added to the cells in 5 concentrations up to 250 μM. Cells were incubated with the test article for 20 h and then toxicity determined by the MTT cytotoxicity screen. Toxicity was evaluated against the vehicle control (DMSO) and a positive control, amitriptylin, was included with each experiment.
# [6] = po 2, 10, 50 mg/kg daily for 7 days
compound,measurement,setting,value
"O=C(NC1CCCCC1)N(Cc1ccccc1)CC1CCNCC1 [SRI-011381, 1-Benzyl-3-cyclohexyl-1-(piperidin-4-ylmethyl)urea]",CYP inhibition,[1],did not inhibit any CYP activity significantly
same,body weight,[2],no significant differences in body weight
same,clinical chemistry or hematology parameters,[2],no statistically significant changes
same,MTD at 2 weeks,[3],> 100 mg/kg
same,LDH,Sprague Dawley rats; high dose group (50 mg/kg),significantly lower in male rats of the high dose group
same,gender related differences in exposure,Sprague Dawley rats; male and female rats,nor were gender related differences observed
same,exposure after 7 doses compared to the first dose,"Sprague Dawley rats; po 2, 10, 50 mg/kg",no apparent change in exposure
same,alkaline phosphatase (ALP) levels,Sprague Dawley rats; [6],"significantly elevated in all treatment groups in the female rats, though not in males"
same,body weight,Sprague Dawley rats; [6],no statistically significant differences in body weight
same,clinical observations,Sprague Dawley rats; [6],appeared normal
same,hematology parameters,Sprague Dawley rats; [6],no significant changes in any hematology parameters
same,exposure based on plasma collected 1 h after dose,"Sprague Dawley rats; po 2, 10, 50 mg/kg, Day 1 and 7",increased in a dose dependent fashion
same,fibrillar Aβ clearance,[4],promoted fibrillar Aβ clearance; also recorded: promoted fibrillar Aβ42 clearance
same,fibrillar Aβ clearance,[4]; listed as SRI-11381,promote fibrillar Aβ42 clearance
same,CC50 at 20 h,[5],> 100 µM
